Assay results from patent US20170000133A1, “BENZOXABOROLE FUNGICIDES” (SYNGENTA PARTICIPATIONS AG, priority 2013, published 2017).

Legend:
[1] = tested on: Glomerella lagenarium (Colletotrichum lagenarium); assay: Glomerella lagenarium (Colletotrichum lagenarium) / liquid culture (anthracnose); type: cell-based; conditions: Colletotrichum orbiculare, PDB potato dextrose broth, 24° C., 3-4 days after application, read-out: disease control (inhibition of growth measured photometrically)
Method: 11. Glomerella lagenarium (Colletotrichum lagenarium)/Liquid Culture (Anthracnose): Conidia of the fungus from cryogenic storage were directly mixed into nutrient broth (PDB potato dextrose broth). After placing a DMSO solution of test compound into a 96-well microtiter plate at an application rate of 200 ppm, the nutrient broth containing the fungal spores was added. The test plates were incubated at 24° C. and the inhibition of growth was measured photometrically 3-4 days after application.

[2] = tested on: Thanatephorus cucumeris (Rhizoctonia solani); assay: Thanatephorus cucumeris (Rhizoctonia solani) / liquid culture (foot rot, damping-off); type: cell-based; conditions: PDB potato dextrose broth, 24° C., 3-4 days after application, read-out: disease control (inhibition of growth determined photometrically)
Procedure, shortened: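 Mycelial fragments from fresh liquid culture were suspended in potato dextrose broth and added to compound in DMSO at 200 ppm. After 3-4 days at 24 °C, growth inhibition was measured photometrically.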

[3] = tested on: Mycosphaerella graminicola (Septoria tritici); assay: Mycosphaerella graminicola (Septoria tritici) / liquid culture (Septoria blotch); type: cell-based; conditions: Zymoseptoria tritici, PDB potato dextrose broth, 24° C., 4-5 days after application, read-out: disease control (inhibition of growth determined photometrically)
Method: 13. Mycosphaerella graminicola (Septoria tritici)/Liquid Culture (Septoria Blotch): Conidia of the fungus from cryogenic storage were directly mixed into nutrient broth (PDB potato dextrose broth). After placing a DMSO solution of test compound into a 96-well microtiter plate at an application rate of 200 ppm, the nutrient broth containing the fungal spores was added. The test plates were incubated at 24° C. and the inhibition of growth was determined photometrically 4-5 days after application.

[4] = tested on: Gaeumannomyces graminis; assay: Gaeumannomyces graminis / liquid culture (take-all of cereals); type: cell-based; conditions: PDB potato dextrose broth, 24° C., 4-5 days after application, read-out: disease control (inhibition of growth determined photometrically)
Procedure, shortened: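 Cryo-stored mycelial fragments in potato dextrose broth exposed to compound in DMSO at 200 ppm. Incubated at 24 °C; growth inhibition read photometrically 4–5 days after application.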

[5] = tested on: Monographella nivalis (Microdochium nivale); assay: Monographella nivalis (Microdochium nivale) / liquid culture (foot rot cereals); type: cell-based; conditions: PDB potato dextrose broth, 24° C., 4-5 days after application, read-out: disease control (inhibition of growth determined photometrically)
[6] = tested on: Mycosphaerella arachidis (Cercospora arachidicola); assay: Mycosphaerella arachidis (Cercospora arachidicola) / liquid culture (early leaf spot); type: cell-based; conditions: PDB potato dextrose broth, 24° C., 4-5 days after application, read-out: disease control (inhibition of growth determined photometrically)
Method: 12. Mycosphaerella arachidis (Cercospora arachidicola)/Liquid Culture (Early Leaf Spot): Conidia of the fungus from cryogenic storage were directly mixed into nutrient broth (PDB potato dextrose broth). After placing a DMSO solution of test compound into a 96-well microtiter plate at an application rate of 200 ppm, the nutrient broth containing the fungal spores was added. The test plates were incubated at 24° C. and the inhibition of growth was determined photometrically 4-5 days after application.

[7] = tested on: Pythium ultimum; assay: Pythium ultimum / liquid culture (seedling damping off); type: cell-based; conditions: Globisporangium ultimum; 200 ppm; potato dextrose broth, 24° C., 2-3 days after application; read-out: disease control (inhibition of growth determined photometrically)
[8] = tested on: Plasmopara viticola; assay: whole plant or invertebrate; type: in vivo; conditions: foliar, read-out: disease control

CCCCCCCOC(=O)c1cc2c(cc1Cl)COB2O [Compound 195]
≥ 80%: inhibition at 200 ppm [1] | inhibition at 200 ppm [2] | inhibition at 200 ppm [3] | inhibition at 200 ppm [4] | inhibition at 200 ppm [5] | inhibition at 200 ppm [6]

CCCCSCCOC(=O)c1cc2c(cc1Cl)COB2O [Compound 198]
≥ 80%: inhibition at 200 ppm [1] | inhibition at 200 ppm [2] | inhibition at 200 ppm [3] | inhibition at 200 ppm [5] | inhibition at 200 ppm [6] | inhibition at 200 ppm [7]

C=C(C)COC(=O)c1cc2c(cc1Cl)COB2O [Compound 214]
≥ 80%: inhibition at 200 ppm [1] | inhibition at 200 ppm [2] | inhibition at 200 ppm [3] | inhibition at 200 ppm [4] | inhibition at 200 ppm [5] | inhibition at 200 ppm [6] | inhibition at 200 ppm [7]

COc1ccc(OCCOC(=O)c2cc3c(cc2Cl)COB3O)cc1 [Compound 218]
≥ 80%: inhibition at 200 ppm [1] | inhibition at 200 ppm [2] | inhibition at 200 ppm [3] | inhibition at 200 ppm [4] | inhibition at 200 ppm [5] | inhibition at 200 ppm [6] | inhibition at 200 ppm [7]

O=C(OCCc1c(Cl)cccc1Cl)c1cc2c(cc1Cl)COB2O [Compound 240]
≥ 80%: pest or weed control at 200 ppm [8] | inhibition at 200 ppm [1] | inhibition at 200 ppm [2] | inhibition at 200 ppm [3] | inhibition at 200 ppm [4] | inhibition at 200 ppm [5] | inhibition at 200 ppm [6] | inhibition at 200 ppm [7]

O=C(OCc1cccc(F)c1)c1cc2c(cc1Cl)COB2O [Compound 241]
≥ 80%: inhibition at 200 ppm [1] | inhibition at 200 ppm [2] | inhibition at 200 ppm [3] | inhibition at 200 ppm [4] | inhibition at 200 ppm [5] | inhibition at 200 ppm [6] | inhibition at 200 ppm [7]

O=C(OCC(F)(F)Cl)c1ccc2c(c1)B(O)OC2 [Compound 314]
≥ 80%: pest or weed control at 200 ppm [8] | inhibition at 200 ppm [1] | inhibition at 200 ppm [2] | inhibition at 200 ppm [3] | inhibition at 200 ppm [4] | inhibition at 200 ppm [5] | inhibition at 200 ppm [6] | inhibition at 200 ppm [7]

C#CCOC(=O)c1ccc2c(c1)B(O)OC2 [Compound 320]
≥ 80%: pest or weed control at 200 ppm [8] | inhibition at 200 ppm [1] | inhibition at 200 ppm [2] | inhibition at 200 ppm [3] | inhibition at 200 ppm [4] | inhibition at 200 ppm [5] | inhibition at 200 ppm [6] | inhibition at 200 ppm [7]

O=C(OCc1ccc(-c2ccccc2)cc1)c1ccc2c(c1)B(O)OC2 [Compound 325]
≥ 80%: inhibition at 200 ppm [1] | inhibition at 200 ppm [3] | inhibition at 200 ppm [4] | inhibition at 200 ppm [5] | inhibition at 200 ppm [6]

CC#CC(C)OC(=O)c1ccc2c(c1)B(O)OC2 (centres unmarked) [Compound 341]
≥ 80%: pest or weed control at 200 ppm [8] | inhibition at 200 ppm [1] | inhibition at 200 ppm [2] | inhibition at 200 ppm [3] | inhibition at 200 ppm [4] | inhibition at 200 ppm [6] | inhibition at 200 ppm [7]

Cn1cc(CCCOC(=O)c2ccc3c(c2)B(O)OC3)cn1 [Compound 345]
≥ 80%: pest or weed control at 200 ppm [8] | inhibition at 200 ppm [1] | inhibition at 200 ppm [2] | inhibition at 200 ppm [4] | inhibition at 200 ppm [6] | inhibition at 200 ppm [7]

O=C(OCCF)c1ccc2c(c1)B(O)OC2 [Compound 360]
≥ 80%: pest or weed control at 200 ppm [8] | inhibition at 200 ppm [1] | inhibition at 200 ppm [2] | inhibition at 200 ppm [6] | inhibition at 200 ppm [7]

CCCCCCCOC(=O)c1cc2c(cc1F)COB2O [Compound 378]
≥ 80%: inhibition at 200 ppm [1] | inhibition at 200 ppm [2] | inhibition at 200 ppm [3] | inhibition at 200 ppm [4] | inhibition at 200 ppm [5] | inhibition at 200 ppm [6] | inhibition at 200 ppm [7]

CCCCSCCOC(=O)c1cc2c(cc1F)COB2O [Compound 384]
≥ 80%: inhibition at 200 ppm [1] | inhibition at 200 ppm [2] | inhibition at 200 ppm [3] | inhibition at 200 ppm [5] | inhibition at 200 ppm [6] | inhibition at 200 ppm [7]

O=C(OCc1ccc(-c2ccccc2)cc1)c1cc2c(cc1F)COB2O [Compound 385]
≥ 80%: inhibition at 200 ppm [1] | inhibition at 200 ppm [2] | inhibition at 200 ppm [3] | inhibition at 200 ppm [4] | inhibition at 200 ppm [5] | inhibition at 200 ppm [6]

O=C(OC1CCC1)c1cc2c(cc1F)COB2O [Compound 392]
≥ 80%: pest or weed control at 200 ppm [8] | inhibition at 200 ppm [1] | inhibition at 200 ppm [2] | inhibition at 200 ppm [3] | inhibition at 200 ppm [5] | inhibition at 200 ppm [6] | inhibition at 200 ppm [7]

C#CCCCOC(=O)c1cc2c(cc1F)COB2O [Compound 395]
≥ 80%: pest or weed control at 200 ppm [8] | inhibition at 200 ppm [1] | inhibition at 200 ppm [2] | inhibition at 200 ppm [4] | inhibition at 200 ppm [5] | inhibition at 200 ppm [6] | inhibition at 200 ppm [7]

C[Si](C)(C)/C=C/COC(=O)c1cc2c(cc1F)COB2O [Compound 404]
≥ 80%: inhibition at 200 ppm [1] | inhibition at 200 ppm [2] | inhibition at 200 ppm [3] | inhibition at 200 ppm [4] | inhibition at 200 ppm [5] | inhibition at 200 ppm [6] | inhibition at 200 ppm [7]

COc1ccc(OCCOC(=O)c2cc3c(cc2F)COB3O)cc1 [Compound 406]
≥ 80%: inhibition at 200 ppm [1] | inhibition at 200 ppm [2] | inhibition at 200 ppm [3] | inhibition at 200 ppm [4] | inhibition at 200 ppm [5] | inhibition at 200 ppm [6] | inhibition at 200 ppm [7]

COCCOC(=O)c1cc2c(cc1F)COB2O [Compound 412]
≥ 80%: pest or weed control at 200 ppm [8] | inhibition at 200 ppm [1] | inhibition at 200 ppm [2] | inhibition at 200 ppm [5] | inhibition at 200 ppm [6] | inhibition at 200 ppm [7]

O=C(OCCOc1ccc(Cl)cc1)c1cc2c(cc1F)COB2O [Compound 414]
≥ 80%: inhibition at 200 ppm [1] | inhibition at 200 ppm [2] | inhibition at 200 ppm [3] | inhibition at 200 ppm [4] | inhibition at 200 ppm [5] | inhibition at 200 ppm [6] | inhibition at 200 ppm [7]
